The results in this text go back to patent publication US20240158446A1, “CYCLIC COMPOUND HAVING SELECTIVE INHIBITORY ACTION ON KRAS OVER HRAS AND NRAS” (CHUGAI SEIYAKU KABUSHIKI KAISHA, priority 2021, published 2024).

Each structure is given as a SMILES string.

For assay [1], the target named is GDP-bound KRAS wild-type protein (Homo sapiens, UniProt P01116). Nature of the assay: Binding to KRAS by surface plasmon resonance (SPR), Single Cycle Kinetics. The note with it: SPR, Single Cycle Kinetics, GDP-bound KRAS wild-type protein; read-out: KRAS KD. In general terms: SPR reads the build-up and loss of mass on a sensor chip optically.
The target of assay [2] is GDP-bound NRAS wild-type protein (Homo sapiens, UniProt P01111). Kind of assay: Binding to NRAS by surface plasmon resonance (SPR), Single Cycle Kinetics. The note with it: ratio of KD for GDP-bound NRAS wild-type protein to KD for KRAS, SPR.
Assay [3] addresses GDP-bound HRAS wild-type protein (Homo sapiens, UniProt P01112). Nature of the assay: Binding to HRAS by surface plasmon resonance (SPR), Single Cycle Kinetics. To be noted: ratio of KD for GDP-bound HRAS wild-type protein to KD for KRAS, SPR.
Assay [4] relates to human lung cancer strain NCI-H441. Nature of the assay: cells. The note with it: NCI-H441, 96 h, read-out: NCI-H441 IC50 (nM), NCI-H441 cell proliferation, 4 days, CellTiter-Glo. In general terms: Cellular ATP, detected with luciferase, serves as a proxy for viable cell number.
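For IC50 in this document: cell proliferation inhibition after four days measured by CellTiter-Glo.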

Sequence of GDP-bound NRAS wild-type protein (P01111 whole entry): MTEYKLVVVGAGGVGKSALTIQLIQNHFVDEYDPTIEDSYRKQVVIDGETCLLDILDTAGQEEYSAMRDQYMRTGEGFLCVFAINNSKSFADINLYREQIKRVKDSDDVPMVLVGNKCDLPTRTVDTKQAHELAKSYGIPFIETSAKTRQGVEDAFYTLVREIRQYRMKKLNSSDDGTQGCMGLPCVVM
Sequence of GDP-bound KRAS wild-type protein (P01116 whole entry): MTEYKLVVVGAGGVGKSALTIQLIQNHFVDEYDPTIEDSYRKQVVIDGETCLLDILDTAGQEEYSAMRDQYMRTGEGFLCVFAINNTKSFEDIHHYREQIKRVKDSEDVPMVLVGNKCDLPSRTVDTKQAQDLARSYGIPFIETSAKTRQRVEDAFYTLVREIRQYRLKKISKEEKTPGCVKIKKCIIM
Sequence of GDP-bound HRAS wild-type protein (P01112 whole entry): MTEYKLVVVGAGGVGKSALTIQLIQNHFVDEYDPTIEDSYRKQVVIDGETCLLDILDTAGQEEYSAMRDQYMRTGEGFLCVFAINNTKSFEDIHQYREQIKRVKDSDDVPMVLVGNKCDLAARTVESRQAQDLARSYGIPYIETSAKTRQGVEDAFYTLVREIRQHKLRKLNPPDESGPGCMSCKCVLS

As usually defined, the Kd is a measure of binding affinity in units of concentration. Consider `CCO[C@@H]1C[C@H]2C(=O)NC3(CC(C)(C)C3)C(=O)N(C)[C@@H](C(CC)CC)C(=O)N3CCC[C@@H]3CC(=O)N(C)[C@@H](CC3CC3)C(=O)N[C@@H]([C@@H](C)CC)C(=O)N(C)CC(=O)N(C)[C@H]3C/C=C\CCN(C3=O)[C@@H](Cc3ccc(C(F)(F)F)cc3)C(=O)N(C)CC(=O)N[C@@H](CCc3cc(F)c(C(F)(F)F)c(F)c3)C(=O)N2C1` [PP1610], for which, in assay [1], the Kd was found to be 1.4 nM. In assay [2], the “NRAS/KRAS (KD ratio)” value was “A (a compound having 10 or more and less than 20 is denoted as A)”. In addition, the “HRAS/KRAS (KD ratio)” value in assay [3] is “A (a compound having 10 or more and less than 20 is denoted as A)”. Besides, in assay [4], the IC50 was 86.8 nM.
For `CCO[C@@H]1C[C@H]2C(=O)NC3(CC(C)(C)C3)C(=O)N(C)[C@@H](C3CCCC3)C(=O)N3CCC[C@@H]3CC(=O)N(C)[C@@H](CC3CC3)C(=O)N[C@@H]([C@@H](C)CC)C(=O)N(C)CC(=O)N(C)[C@H]3C/C=C\CCN(C3=O)[C@@H](Cc3ccc(C(F)(F)F)cc3)C(=O)N(C)CC(=O)N[C@@H](CCc3cc(F)c(C(F)(F)F)c(F)c3)C(=O)N2C1` [PP1611], the Kd in assay [1] is 1.3 nM. Further, the “NRAS/KRAS (KD ratio)” value in assay [2] is “B (a compound having 3 or more and less than 10 is denoted as B)”. The “HRAS/KRAS (KD ratio)” value in assay [3] was “B (a compound having 3 or more and less than 10 is denoted as B)”. Besides, in assay [4], the IC50 turned out to be 28 nM.
For `CCO[C@@H]1C[C@H]2C(=O)NC3(CCC3)C(=O)N(C)[C@@H](C(CC)CC)C(=O)N3CCC[C@@H]3CC(=O)N(C)[C@@H](CC3CC3)C(=O)N[C@@H]([C@@H](C)CC)C(=O)N(C)CC(=O)N(C)[C@H]3C/C=C\CCN(C3=O)[C@@H](Cc3ccc(C(F)(F)F)cc3)C(=O)N(C)CC(=O)N[C@@H](CCc3cc(F)c(C(F)(F)F)c(F)c3)C(=O)N2C1` [PP1612], in assay [1], the Kd was found to be 1.2 nM. In addition, the “NRAS/KRAS (KD ratio)” value in assay [2] is “B (a compound having 3 or more and less than 10 is denoted as B)”. The “HRAS/KRAS (KD ratio)” value in assay [3] is “B (a compound having 3 or more and less than 10 is denoted as B)”. Further, the IC50 in assay [4] was 61.9 nM.
With `CCO[C@@H]1C[C@H]2C(=O)NC3(CCC3)C(=O)N(C)[C@@H](C3CCCC3)C(=O)N3CCC[C@@H]3CC(=O)N(C)[C@@H](CC3CC3)C(=O)N[C@@H]([C@@H](C)CC)C(=O)N(C)CC(=O)N(C)[C@H]3C/C=C\CCN(C3=O)[C@@H](Cc3ccc(C(F)(F)F)cc3)C(=O)N(C)CC(=O)N[C@@H](CCc3cc(F)c(C(F)(F)F)c(F)c3)C(=O)N2C1` [PP1613], in assay [1], the equilibrium dissociation constant (Kd) came out at 0.15 nM. Also, in assay [2], the “NRAS/KRAS (KD ratio)” value is “B (a compound having 3 or more and less than 10 is denoted as B)”. Also, the “HRAS/KRAS (KD ratio)” value in assay [3] is “B (a compound having 3 or more and less than 10 is denoted as B)”. The IC50 in assay [4] was found to be 14.7 nM.
For `CCO[C@@H]1C[C@H]2C(=O)NC3(CC(F)(F)C3)C(=O)N(C)[C@@H](C(CC)CC)C(=O)N3CCC[C@@H]3CC(=O)N(C)[C@@H](CC3CC3)C(=O)N[C@@H]([C@@H](C)CC)C(=O)N(C)CC(=O)N(C)[C@H]3C/C=C\CCN(C3=O)[C@@H](Cc3ccc(C(F)(F)F)cc3)C(=O)N(C)CC(=O)N[C@@H](CCc3cc(F)c(C(F)(F)F)c(F)c3)C(=O)N2C1` [PP1614], in assay [1], the dissociation constant Kd was 1.1 nM. The “NRAS/KRAS (KD ratio)” value in assay [2] was “A (a compound having 10 or more and less than 20 is denoted as A)”. Further, the “HRAS/KRAS (KD ratio)” value in assay [3] was “A (a compound having 10 or more and less than 20 is denoted as A)”. In addition, the IC50 in assay [4] was 54.2 nM.
For the compound `CCO[C@@H]1C[C@H]2C(=O)NC3(CC(F)(F)C3)C(=O)N(C)[C@@H](C3CCCC3)C(=O)N3CCC[C@@H]3CC(=O)N(C)[C@@H](CC3CC3)C(=O)N[C@@H]([C@@H](C)CC)C(=O)N(C)CC(=O)N(C)[C@H]3C/C=C\CCN(C3=O)[C@@H](Cc3ccc(C(F)(F)F)cc3)C(=O)N(C)CC(=O)N[C@@H](CCc3cc(F)c(C(F)(F)F)c(F)c3)C(=O)N2C1` [PP1615], the Kd in assay [1] turned out to be 0.45 nM. The “NRAS/KRAS (KD ratio)” value in assay [2] is “B (a compound having 3 or more and less than 10 is denoted as B)”. For the same compound, the “HRAS/KRAS (KD ratio)” value in assay [3] was “B (a compound having 3 or more and less than 10 is denoted as B)”. In addition, the IC50 in assay [4] was found to be 20.9 nM.
As for `CCO[C@@H]1C[C@H]2C(=O)NC3(CCC3)C(=O)N(C)[C@@H](C3CCCC3)C(=O)N3CCC[C@@H]3CC(=O)N(C)[C@@H](CC3CC3)C(=O)N[C@@H]([C@@H](C)CC)C(=O)N(C)CC(=O)N(C)[C@H]3C/C=C\CCN(C3=O)[C@@H](Cc3ccc(C(F)(F)F)cc3)C(=O)N(C)CC(=O)N[C@@H](CCc3ccc(C(F)(F)F)c(OC)c3)C(=O)N2C1` [PP1616], in assay [1], the Kd is 0.29 nM. Moreover, the “NRAS/KRAS (KD ratio)” value in assay [2] was “B (a compound having 3 or more and less than 10 is denoted as B)”. Also, the “HRAS/KRAS (KD ratio)” value in assay [3] is “B (a compound having 3 or more and less than 10 is denoted as B)”. Further, in assay [4], the IC50 came out at 33.5 nM.
As for `CCO[C@@H]1C[C@H]2C(=O)NC3(CC(C)(C)C3)C(=O)N(C)[C@@H](C3CCCC3)C(=O)N3CCC[C@@H]3CC(=O)N(C)[C@@H](CC)C(=O)N[C@@H]([C@@H](C)CC)C(=O)N(C)CC(=O)N(C)[C@H]3C/C=C\CCN(C3=O)[C@@H](CC3CCCCC3)C(=O)N(C)CC(=O)N[C@@H](CCc3cc(F)c(C(F)(F)F)c(F)c3)C(=O)N2C1` [PP1620], the dissociation constant (Kd) in assay [1] was found to be 6.4 nM. Also, the “NRAS/KRAS (KD ratio)” value in assay [2] was “B (a compound having 3 or more and less than 10 is denoted as B)”. Also, the “HRAS/KRAS (KD ratio)” value in assay [3] was “B (a compound having 3 or more and less than 10 is denoted as B)”. Moreover, in assay [4], the IC50 came to 170 nM.
Regarding `CCO[C@@H]1C[C@H]2C(=O)NC3(CC(C)(C)C3)C(=O)N(C)[C@@H](C3CCCC3)C(=O)N(C)[C@H](CC)CC(=O)N(C)[C@@H](CC)C(=O)N[C@@H]([C@@H](C)CC)C(=O)N(C)CC(=O)N(C)[C@H]3C/C=C\CCN(C3=O)[C@@H](Cc3ccc(C(F)(F)F)cc3)C(=O)N(C)CC(=O)N[C@@H](CCc3cc(F)c(C(F)(F)F)c(F)c3)C(=O)N2C1` [PP1623], in assay [1], the Kd was determined as 0.19 nM. For the same compound, the “NRAS/KRAS (KD ratio)” value in assay [2] is “A (a compound having 10 or more and less than 20 is denoted as A)”. In assay [3], the “HRAS/KRAS (KD ratio)” value is “A (a compound having 10 or more and less than 20 is denoted as A)”. Further, the IC50 in assay [4] is 4.5 nM.
Take `CCO[C@@H]1C[C@H]2C(=O)NC3(CCC3)C(=O)N(C)[C@@H](C(CC)CC)C(=O)N(C)[C@H](CC)CC(=O)N(C)[C@@H](CC)C(=O)N[C@@H]([C@@H](C)CC)C(=O)N(C)CC(=O)N(C)[C@H]3C/C=C\CCN(C3=O)[C@@H](Cc3ccc(C(F)(F)F)cc3)C(=O)N(C)CC(=O)N[C@@H](CCc3cc(F)c(C(F)(F)F)c(F)c3)C(=O)N2C1` [PP1624]: the dissociation constant (Kd) in assay [1] is 1.1 nM. In assay [2], the “NRAS/KRAS (KD ratio)” value was “A (a compound having 10 or more and less than 20 is denoted as A)”. In assay [3], the “HRAS/KRAS (KD ratio)” value is “A (a compound having 10 or more and less than 20 is denoted as A)”. The IC50 in assay [4] was found to be 55.8 nM.
In the case of `CCO[C@@H]1C[C@H]2C(=O)NC3(CCC3)C(=O)N(C)[C@@H](C3CCCC3)C(=O)N(C)[C@H](CC)CC(=O)N(C)[C@@H](CC)C(=O)N[C@@H]([C@@H](C)CC)C(=O)N(C)CC(=O)N(C)[C@H]3C/C=C\CCN(C3=O)[C@@H](Cc3ccc(C(F)(F)F)cc3)C(=O)N(C)CC(=O)N[C@@H](CCc3cc(F)c(C(F)(F)F)c(F)c3)C(=O)N2C1` [PP1625], the Kd in assay [1] came out at 0.29 nM. Besides, the “NRAS/KRAS (KD ratio)” value in assay [2] was “B (a compound having 3 or more and less than 10 is denoted as B)”. For the same compound, the “HRAS/KRAS (KD ratio)” value in assay [3] is “B (a compound having 3 or more and less than 10 is denoted as B)”. For the same compound, the IC50 in assay [4] was 20.2 nM.
Consider `CCO[C@@H]1C[C@H]2C(=O)NC3(CC(F)(F)C3)C(=O)N(C)[C@@H](C(CC)CC)C(=O)N(C)[C@H](CC)CC(=O)N(C)[C@@H](CC)C(=O)N[C@@H]([C@@H](C)CC)C(=O)N(C)CC(=O)N(C)[C@H]3C/C=C\CCN(C3=O)[C@@H](Cc3ccc(C(F)(F)F)cc3)C(=O)N(C)CC(=O)N[C@@H](CCc3cc(F)c(C(F)(F)F)c(F)c3)C(=O)N2C1` [PP1626], for which the Kd in assay [1] came to 3 nM. In assay [2], the “NRAS/KRAS (KD ratio)” value was “A (a compound having 10 or more and less than 20 is denoted as A)”. In assay [3], the “HRAS/KRAS (KD ratio)” value is “A (a compound having 10 or more and less than 20 is denoted as A)”. In addition, the IC50 in assay [4] is 108 nM.
`CCO[C@@H]1C[C@H]2C(=O)NC3(CC(F)(F)C3)C(=O)N(C)[C@@H](C3CCCC3)C(=O)N(C)[C@H](CC)CC(=O)N(C)[C@@H](CC)C(=O)N[C@@H]([C@@H](C)CC)C(=O)N(C)CC(=O)N(C)[C@H]3C/C=C\CCN(C3=O)[C@@H](Cc3ccc(C(F)(F)F)cc3)C(=O)N(C)CC(=O)N[C@@H](CCc3cc(F)c(C(F)(F)F)c(F)c3)C(=O)N2C1` [PP1627]: in assay [1], the Kd was determined as 0.25 nM. Also, the “NRAS/KRAS (KD ratio)” value in assay [2] is “A (a compound having 10 or more and less than 20 is denoted as A)”. The “HRAS/KRAS (KD ratio)” value in assay [3] was “A (a compound having 10 or more and less than 20 is denoted as A)”. Moreover, the IC50 in assay [4] was 22.9 nM.
Regarding `CCO[C@@H]1C[C@H]2C(=O)NC3(CC(C)(C)C3)C(=O)N(C)[C@@H](C(CC)CC)C(=O)N(C)[C@H](CC)CC(=O)N(C)[C@@H](CC3CC3)C(=O)N[C@@H]([C@@H](C)CC)C(=O)N(C)CC(=O)N(C)[C@H]3C/C=C\CCN(C3=O)[C@@H](Cc3ccc(C(F)(F)F)cc3)C(=O)N(C)CC(=O)N[C@@H](CCc3cc(F)c(C(F)(F)F)c(F)c3)C(=O)N2C1` [PP1628], in assay [1], the Kd is 2.5 nM. Also, the “NRAS/KRAS (KD ratio)” value in assay [2] was “A (a compound having 10 or more and less than 20 is denoted as A)”. The “HRAS/KRAS (KD ratio)” value in assay [3] is “A (a compound having 10 or more and less than 20 is denoted as A)”. The IC50 in assay [4] amounted to 150 nM.
